Columns and labels:
weeds [1] = assay: Post-emergence test (Example B), activity against weeds; type: in vivo; conditions: test plants 5-15 cm sprayed, rated after three weeks
From the text: (§1) Solvent: 5 parts by weight of acetone
(§2) Emulsifier: 1 part by weight of alkylaryl polyglycol ether
(§3) After three weeks, the degree of damage to the plants is rated in % damage in comparison to the development of the untreated control.

[2] = log P determination by HPLC (reversed-phase C18), EEC Directive 79/831 Annex V.A8; type: physicochemical; conditions: reversed-phase C18 HPLC column; pH 2.3; HPLC reversed-phase C18, 43° C.
Experimental: The log P values given in the table were determined in accordance with EEC Directive 79/831 Annex V.A8 by HPLC (High Performance Liquid Chromatography) using a reversed-phase column (C 18). Temperature: 43° C. (a) Mobile phases for the determination in the acidic range: 0.1% aqueous phosphoric acetonitrile; linear gradient from 10% acetonitrile to 90% acetonitrile—the sponding measurement results in Table 1 are marked ^a). (b) Mobile phases for the determination in the neutral range: 0.01 molar aqueous phosphate buffer solution, acetonitrile; linear gradient from 10% acetonitrile to 90% acetonitrile—the corresponding measurement results in Table 1 are marked^b). Calibration was carried out using unbranched alkan-2-ones (with 3 to 16 carbon atoms) with known log P values (determination of the log P values by the retention times using linear interpolation between two successive alkanones).

weeds [3] = assay: Pre-emergence test (Example A), activity against weeds; type: in vivo; conditions: soil sprayed 24 hours after sowing, rated after three weeks
From the text: as §1, §2
Seeds of the test plants are sown in normal soil.
as §3

Structure (SMILES)	activity against weeds (degree of damage) (weeds [1])	chromatographic logP [2]	activity against weeds (degree of damage) (weeds [3])
COC(=O)c1occc1COc1cc(-n2c(=O)cc(C(F)(F)F)n(C)c2=O)c(F)cc1Br [Example 2, methyl 3-[2-bromo-5-(2,6-dioxo-3-methyl-4-trifluoromethyl-3,6-dihydro-2H-pyrimidin-1-yl)-4-fluorophenoxymethyl]furan-2-carboxylate]	very strong activity against weeds	3.34	very strong activity against weeds
COC(=O)c1ccoc1COc1cc(-n2c(=O)cc(C(F)(F)F)n(N)c2=O)c(F)cc1Br [Example 3, methyl 2-[2-bromo-5-(3-amino-2,6-dioxo-4-trifluoromethyl-3,6-dihydro-2H-pyrimidin-1-yl)-4-fluorophenoxymethyl]furan-3-carboxylate]	very strong activity against weeds	3	very strong activity against weeds

Source: patent US20050288185A1, “Substituted phenyluracils” (priority 2002, published 2005)
